The target in this assay is 5-hydroxytryptamine receptor 4 (Cavia porcellus, UniProt O70528). The experiment in a line: Displacement of [3H]-GR113808 from 5-HT4R in Dunkin-Hartley guinea pig straitum nuclear membranes after 30 mins by filter binding method. Background: Displacement assays read how much labelled ligand stays bound in the presence of the test substance.
5-hydroxytryptamine receptor 4, sequence (O70528 whole entry): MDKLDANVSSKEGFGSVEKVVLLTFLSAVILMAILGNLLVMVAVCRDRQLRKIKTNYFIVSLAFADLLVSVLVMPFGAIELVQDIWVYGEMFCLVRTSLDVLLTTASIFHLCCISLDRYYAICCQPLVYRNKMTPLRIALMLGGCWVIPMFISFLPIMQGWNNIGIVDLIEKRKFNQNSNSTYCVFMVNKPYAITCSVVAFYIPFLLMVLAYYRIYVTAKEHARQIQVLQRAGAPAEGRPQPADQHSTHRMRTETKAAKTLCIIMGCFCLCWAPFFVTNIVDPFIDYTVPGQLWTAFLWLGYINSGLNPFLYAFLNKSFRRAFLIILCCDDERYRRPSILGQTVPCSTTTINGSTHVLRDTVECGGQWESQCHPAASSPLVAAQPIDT
As a reminder, the Ki is the equilibrium dissociation constant of an inhibitor or competing ligand from its target. Read a low Ki as a stronger hold on the target. `CCCCN1CCC(COC(=O)c2cc(Cl)nc3ccccc23)CC1` came in with a Ki of 0.86 nM. For the molecule `COc1cc(C(=O)OCCN2CCC(NC(=O)OC(C)(C)C)CC2)c2ccccc2n1`, the Ki was 304 nM.

With `CCCCN1CCC(CNC(=O)c2cc(OC)nc3ccccc23)CC1`, the Ki was more than 1000 nM. In turn, `CCCCN1CCC(COC(=O)c2ccnc3ccccc23)CC1` yielded a Ki of 1.5 nM. In other words, the single-digit nanomolar range. In turn, `COc1cc(C(=O)OCCN2CCCCC2)c2ccccc2n1` yielded an inhibition constant (Ki) of 15 nM. Under `O=C(NCCN1CCCCC1)c1cc(Cl)c2ccccc2n1` stands more than 1000 nM; under `CCCCN1CCC(CNC(=O)c2cc(OC)c3ccccc3n2)CC1`, 148 nM.

With `CCCCN1CCC(CNC(=O)c2ccc3cccc(O)c3n2)CC1`, the affinity corresponds to a Ki of 76 nM. Turning to `COc1cc(C(=O)OCCN2CCC(CO)CC2)c2ccccc2n1`, the Ki turned out to be 8 nM. The molecule `CCCCN1CCC(COC(=O)c2cc(OC)nc3ccccc23)CC1` displayed a Ki of 0.62 nM. The molecule `CCCCN1CCC(COC(=O)c2cc(C3CC3)nc3ccccc23)CC1` registered a Ki of 0.44 nM. `COc1cc(C(=O)NCCN2CCCCC2)c2ccccc2n1`: the Ki is more than 1000 nM. As to `O=C(NCCCN1CCCCC1)c1cc(Cl)c2ccccc2n1`, the Ki was more than 1000 nM. Turning to `CCCCN1CCC(CNC(=O)c2cc(Cl)c3ccccc3n2)CC1`, affinity was put at a Ki of 39 nM.

The molecule `CCCCN1CCC(CCC(=O)c2cc(Cl)c(N)cc2OC)CC1` came in with a Ki of 3.9 nM.
